In paper PMC11623990, “Deferasirox and Ciprofloxacin: Potential Ternary Complex Formation With Ferric Iron, Pharmacodynamic, and Pharmacokinetic Interactions” (The Scientific World Journal, 2024):
≈ marks a conversion by molar mass, not a printed value.

Columns and labels:
[1] = Apparent octanol/H2O partition coefficient; type: physicochemical; conditions: (±SD) in brackets, n = 3
Experimental: (§1) Excess solid of each compound to be tested was added to 6 mL of either phosphate buffer (pH 6.8), acetate buffer (pH 4.5), or 0.1 M HCl and left on a shaker water bath (37°C) for 24 h. One mL was centrifuged for 10 min, and 100 μL of the supernatant was properly diluted with the mobile phase (1:4) before being injected onto HPLC. For determination of octanol/H2O PC, 0.6 mL of the supernatant solution was transferred to a new tube containing 2 mL of octanol. Tubes containing the two layers of octanol and aqueous phase were kept on shaker water bath (37°C) for 24 h. Aliquots of aqueous layer were properly diluted with the mobile phase before being injected onto HPLC. The concentration of the drug in octanol layer was calculated by difference.

[2] = design: method as in PMID 10508341, doi:10.1002/ejic.200400363; conditions: practically measured; cited from earlier work
[3] = design: method as in PMID 10508341, doi:10.1002/ejic.200400363; conditions: cited from earlier work
[4] = system: iron-overloaded rat model; assay: Histological assessment of organs (H&E and Pearl's stain for iron deposits); type: in vivo, Wistar rats
Experimental: Ethical approval of the study protocol was obtained from the Institutional Review Board at the University of Jordan (Approval No. 47–2022) on 17th May 2022 (document No. 19/2022/289). Throughout the study, all animals were housed, fed, and treated in accordance with The University of Jordan ethical guidelines for animal protection. The animal house of the University of Jordan, which is equipped with proper ventilation and temperature control (25 ± 4°C) systems, was utilized for the study. Each animal was placed in a separate standard cage. Sixteen male Wistar rats (6 weeks old, average weight 220 ± 10 g) were subjected to an iron-enriched diet containing 2.5% carbonyl iron according to Ackerman et al. for 6 weeks. Another group of eight rats (control group) was subjected to an ordinary pellet diet for the same period. The 16 animals with iron fortified diets were then separated into two groups of eight: the DFX group which received DFX alone and the DFX-CP group which received DFX plus CP, for 6 days. Drugs were given orally through proper mixing with food so that on average, each animal would ingest 30 mg/kg DFX daily incorporated within 15 gm of dried food. For the DFX-CP group, the 15 g dried food contained CP equivalent to 30 mg/kg of animal weight. […]

[5] = Saturation solubility, shake-flask with HPLC; type: physicochemical; conditions: (±SD) in brackets, n = 3
Experimental: The molar ratio of association between iron and either of the drugs was determined by completely dissolving 2.7 mg of the metal complex products in 10 mL of a mixture of butanol, DMSO, and DMF (3:5:2). Solutions were then diluted twice in DMSO and five times in mobile phase before being injected into HPLC. The developed HPLC method was validated for this purpose and for the determination of solubility and partition coefficients (PCs). The optimum conditions developed comprised a phenyl column (4.6 mm ID; 150 mm·L; Thermo Scientific Hypersil) with a mobile phase consisting of 34% acetonitrile in a 50 mM phosphate buffer. The mobile phase mixture contained 0.032% citric acid, 0.02% EDTA, 0.032% hydroxylamine HCl, and 0.07% trimethylamine, with the overall pH adjusted to 3.7. The mobile phase was delivered isocratically at a flow rate of 1.2 mL/min, and chromatograms monitored at 290 nm.
as §1

[6] = system: iron-overloaded rat model; assay: Level of iron in blood and other tissues determined by AAS; type: in vivo, Wistar rats; conditions: (SD), n = 8
Experimental: (§2) Ethical approval of the study protocol was obtained from the Institutional Review Board at the University of Jordan (Approval No. 47–2022) on 17th May 2022 (document No. 19/2022/289). Throughout the study, all animals were housed, fed, and treated in accordance with The University of Jordan ethical guidelines for animal protection. The animal house of the University of Jordan, which is equipped with proper ventilation and temperature control (25 ± 4°C) systems, was utilized for the study. Each animal was placed in a separate standard cage. Sixteen male Wistar rats (6 weeks old, average weight 220 ± 10 g) were subjected to an iron-enriched diet containing 2.5% carbonyl iron according to Ackerman et al. for 6 weeks. Another group of eight rats (control group) was subjected to an ordinary pellet diet for the same period. The 16 animals with iron fortified diets were then separated into two groups of eight: the DFX group which received DFX alone and the DFX-CP group which received DFX plus CP, for 6 days. Drugs were given orally through proper mixing with food so that on average, each animal would ingest 30 mg/kg DFX daily incorporated within 15 gm of dried food. For the DFX-CP group, the 15 g dried food contained CP equivalent to 30 mg/kg of animal weight. Blood samples were collected from animals using the orbital venous plexus bleeding method with the aid of ether anesthesia in special EDTA tubes on days 1, 3, and 6 after initiation of the drug treatment. Blood samples were centrifuged, and plasma was collected in Eppendorf tubes and kept at −80°C until time of analysis for DFX. On the sixth day of the treatment, animals were sacrificed by cervical dislocation with the aid of mild anesthesia. Liver, heart, kidney, spleen, and the whole gastrointestinal tract (GIT) of all animals were collected and immediately stored in 10% formalin solution for further assessment.
Accurately weighed samples of the tissues to be determined (90–120 mg for liver, and 50–80 mg for heart and spleen) were digested in 1.5 mL of concentrated H2SO4 at 60°C for two days. Samples were vortex mixed and initially diluted 12 times using 2M HCl and filtered using a 0.45 μm PTFE syringe filters. Further dilutions were made if necessary and as appropriate upon sample measurement. Samples were read on Aurora AI1200 atomic absorption spectrophotometer at the specific wavelength of iron. FeCl3 standard solution 1000 μg/mL (Scharlau, Spain) was used to prepare calibration curve solutions. Proper blank samples were prepared along with the calibration curve of standard iron solution. Linearity was established in the range 0.1–8 µg/mL, with a linearity coefficient > 0.99. A typical calibration equation was […]. For statistical analysis, the potential existence of a significant difference between the averages of two groups, a t-test was employed using GraphPad software.

[7] = Level of DFX in plasma of iron-overloaded rats (HPLC); type: in vivo; conditions: male, Wistar, rat, (SD), N = 8
Experimental: as §2, with “Liver, heart, kidney, spleen, and the whole gastrointestinal tract (GIT) of all animals were collected and immediately stored in 10% formalin solution for further assessment.” left out
DFX was determined in plasma and GIT content using a slightly modified HPLC method from that employed in the solubility studies. […]
The method was properly validated for selectivity, precision, accuracy, and linearity. […] However, CP could not be determined by this method as it was coeluted early with other components of the plasma. […]

Apparent partition coefficient ([1]; pH 4.5, 37°C): 2.1 (5.7)
Apparent partition coefficient ([1]; pH 6.8, 37°C): 7.9 (1.11)
solubility at 24 h ([5]; 0.1 M HCl, pH 1.2, pH 1.2 (0.1 M HCl), 37°C): 9.9 µg/mL (≈ 26.5 µM)
solubility at 24 h ([5]; acetate buffer, pH 4.5, pH 4.5 acetate buffer, 37°C): 19.1 µg/mL (≈ 51.2 µM)
Solubility ([5]; pH 6.8 phosphate buffer, 37°C, 24 h): 140.8 (1.9) μg/mL
solubility at 24 h ([5]; phosphate buffer, 37 °C, pH 6.8, aqueous buffer, thermodynamic from solid, pH 6.8 phosphate buffer): 140 µg/mL (≈ 375 µM)
concentration at 1 day ([7]; 1 day after start of drugs in food (30 mg/kg daily oral)): 1200 ng/mL
concentration at 3 day ([7]; 3 days after start of drugs in food (30 mg/kg daily oral)): 10700 ng/mL
concentration at 6 day ([7]; 6 days after start of drugs in food (30 mg/kg daily oral)): 9700 ng/mL
SMILES: O=C(O)c1ccc(-n2nc(-c3ccccc3O)nc2-c2ccccc2O)cc1 [DFX, Deferasirox]
Formation constants of DFX to Fe^3+ [2]: 10^37-10^38
Affinity of DFX to Fe^2+ [3]: very low affinity
Iron deposition in spleen tissue (Pearl's stain) ([4]; compared with the combined treatment group and the control group, seen in six out of eight animals): clearly higher levels of deposited iron
Iron deposition in liver tissue (Pearl's stain) ([4]; compared with the combined treatment group, seen in six of eight animals): higher level of iron deposition
Content of iron in dried tissue ([6]; dried blood, 3 days after initiation of chelation therapy): 4.73 (0.2) mg/100g of tissue
Content of iron in dried tissue ([6]; dried blood, 6 days after initiation of chelation therapy): 4.94 (0.2) mg/100g of tissue
Content of iron in dried tissue ([6]; heart, after 6 days of treatment): 50.3 (2.7) mg/100g of tissue
Content of iron in dried tissue ([6]; liver, after 6 days of treatment): 162.6 (10.1) mg/100g of tissue
Content of iron in dried tissue ([6]; spleen, after 6 days of treatment): 168.8 (9.8) mg/100g of tissue
